One assay has as its target recombinant human HDAC1 (Homo sapiens (Human), UniProt Q13547). Briefly: Enzymatic screening, HDAC1 inhibition (fluorogenic FdL_G substrate). It is filed as biochemical. The protocol:
(§1) For each test compound, 100× concentrated DMSO solutions at 8 doses were prepared and then diluted in assay buffer (25 mM Tris-HCl, pH 8, 130 mM NaCl, 0.05% Tween-20, 10% Glycerol) to obtain 5× concentrated solutions in relation to the final concentrations (typical final concentration range—6.4-200000 nM or 0.18-50000 nM, final DMSO content—1%). Then 10 μL solution of each test compound concentration were placed on a 96-well plate in triplicate and 15 μL of 3.33× concentrated enzyme solution in the assay buffer containing 3.33× concentrated BSA (final BSA concentration—2 mg/mL for HDAC4, HDAC5 and HDAC9 or 1 mg/mL for other isoforms) and in the case of HDAC6-3.33× concentrated TCEP (final TCEP concentration—200 μM) were added to each well. After a period of preincubation (incubation times and temperatures vary for different isoforms and are shown in table 1) 25 μL of solution containing the substrate were added. As substrate, FLUOR DE LYS® deacetylase substrate (Enzo Life Sciences, cat: BML-KI104, FdL), FLUOR DE LYS®-Green substrate (Enzo Life Sciences, cat: BML-KI572, FdL_G) or Boc-Lys(Tfa)-AMC (Bachem, cat: 4060676.005, Tfal)—2× concentrated solution in assay buffer were used. Following a reaction period (reaction times and temperatures vary for different isoforms and are reported in Table 1), 50 μL of the development solution consisting of concentrate FLUOR DE LYS® developer I (Enzo Life Sciences, ca: BML-KI105), diluted 200 times in buffer (50 mM Tris-HCl, pH 8, 137 mM NaCl, 2.7 mM KCl, 1 mM MgCl2) plus 2 μM TSA was added and, after 25 minutes at room temperature in the dark, using the Victor 1420 Multilabel Counter Perkin Elmer Wallac instrument, the fluorescence reading was carried out.

A further assay addresses recombinant human HDAC6 (Homo sapiens (Human), UniProt Q9UBN7). Briefly: Enzymatic screening, HDAC6 inhibition (fluorogenic FdL_G substrate). It is filed as biochemical. The method, then: as §1

These results are taken from US20230286970A1, “NOVEL OXADIAZOLE-BASED SELECTIVE HDAC6 INHIBITORS” (ITALFARMACO S.P.A., priority 2020, published 2023).

A word on the pIC50: it is −log10 of the IC50, conventionally taken in molar units.

pIC50: −log10 of the molar value.

Sequence of recombinant human HDAC1 (Q13547 whole entry, canonical isoform): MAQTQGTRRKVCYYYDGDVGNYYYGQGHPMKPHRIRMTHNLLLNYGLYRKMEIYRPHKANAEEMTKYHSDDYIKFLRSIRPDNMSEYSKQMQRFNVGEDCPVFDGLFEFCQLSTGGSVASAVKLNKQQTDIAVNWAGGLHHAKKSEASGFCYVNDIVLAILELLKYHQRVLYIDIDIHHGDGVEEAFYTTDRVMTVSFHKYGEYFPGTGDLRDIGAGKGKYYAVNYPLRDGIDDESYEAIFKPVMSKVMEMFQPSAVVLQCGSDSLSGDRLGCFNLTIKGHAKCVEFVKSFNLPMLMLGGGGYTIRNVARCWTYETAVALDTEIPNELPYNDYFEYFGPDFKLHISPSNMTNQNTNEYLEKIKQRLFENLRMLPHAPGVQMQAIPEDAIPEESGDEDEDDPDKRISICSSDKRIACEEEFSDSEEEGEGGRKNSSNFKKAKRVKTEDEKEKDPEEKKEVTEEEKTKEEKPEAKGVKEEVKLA
Sequence of recombinant human HDAC6 (Q9UBN7 whole entry): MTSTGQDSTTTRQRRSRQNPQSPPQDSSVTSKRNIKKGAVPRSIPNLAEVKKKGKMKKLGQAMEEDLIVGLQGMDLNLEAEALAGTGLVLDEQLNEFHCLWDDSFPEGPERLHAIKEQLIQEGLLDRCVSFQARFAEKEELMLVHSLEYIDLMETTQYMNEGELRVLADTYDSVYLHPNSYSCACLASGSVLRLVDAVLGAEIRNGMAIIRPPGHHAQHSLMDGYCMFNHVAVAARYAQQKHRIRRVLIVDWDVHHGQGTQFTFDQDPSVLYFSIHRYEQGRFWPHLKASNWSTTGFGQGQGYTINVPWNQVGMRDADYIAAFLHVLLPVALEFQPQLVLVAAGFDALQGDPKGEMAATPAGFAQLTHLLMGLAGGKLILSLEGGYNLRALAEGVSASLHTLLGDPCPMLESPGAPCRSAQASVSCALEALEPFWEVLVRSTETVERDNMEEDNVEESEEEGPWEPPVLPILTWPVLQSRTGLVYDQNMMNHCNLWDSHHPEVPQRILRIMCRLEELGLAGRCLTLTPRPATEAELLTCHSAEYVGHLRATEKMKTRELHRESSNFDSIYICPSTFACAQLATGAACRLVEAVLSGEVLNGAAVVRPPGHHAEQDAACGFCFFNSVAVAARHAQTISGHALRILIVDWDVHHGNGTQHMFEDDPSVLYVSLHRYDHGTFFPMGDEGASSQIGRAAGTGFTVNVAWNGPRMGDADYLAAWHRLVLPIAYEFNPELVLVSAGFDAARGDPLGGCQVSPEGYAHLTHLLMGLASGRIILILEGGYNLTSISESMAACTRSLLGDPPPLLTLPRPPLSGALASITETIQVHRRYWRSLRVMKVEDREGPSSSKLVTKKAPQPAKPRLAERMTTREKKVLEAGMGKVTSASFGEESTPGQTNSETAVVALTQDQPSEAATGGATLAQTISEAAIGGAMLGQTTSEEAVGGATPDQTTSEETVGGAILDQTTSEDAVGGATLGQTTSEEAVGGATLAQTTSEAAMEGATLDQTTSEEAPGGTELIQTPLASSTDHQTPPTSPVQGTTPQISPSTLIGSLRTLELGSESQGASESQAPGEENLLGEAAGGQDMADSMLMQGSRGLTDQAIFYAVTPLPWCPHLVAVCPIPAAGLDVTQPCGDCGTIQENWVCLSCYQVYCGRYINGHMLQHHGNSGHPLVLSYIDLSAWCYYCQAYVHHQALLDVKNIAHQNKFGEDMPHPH

With `[2H]C([2H])(c1ccc(-c2nnc(C(F)F)o2)cc1)n1cnc(-c2ccc(NC3=NCCN3)cc2)c1` [compound 368, N-[4-[1-[dideuterio-[4-[5-(difluoromethyl)-1,3,4-oxadiazol-2-yl]phenyl]methyl]imidazol-4-yl]phenyl]-4,5-dihydro-1H-imidazol-2-amine], the pIC50 at recombinant human HDAC1 is less than 3.00; on recombinant human HDAC6, 7.77.
Take `FC(F)c1nnc(-c2ccc(Cn3nnc(-c4cccc(-c5ccccc5)c4)n3)cc2)o1` [compound 246, 2-(4-((5-([1,1′-biphenyl]-3-yl)-2H-tetrazol-2-yl)methyl)phenyl)-5-(difluoromethyl)-1,3,4-oxadiazole]: the pIC50 on recombinant human HDAC1 was less than 3.70; at recombinant human HDAC6 it was 6.58.
Regarding `Nc1cc2cc(-c3cn(Cc4cc(F)c(-c5nnc(C(F)F)o5)cc4F)nn3)ccc2cn1` [compound 406, 6-[1-({4-[5-(difluoromethyl)-1,3,4-oxadiazol-2-yl]-2,5-difluorophenyl}methyl)-1H-1,2,3-triazol-4-yl]isoquinolin-3-amine], the negative-log IC50 (pIC50) on recombinant human HDAC1 is 3.00; on recombinant human HDAC6 it was 7.07.
For the compound `Nc1ncc2cc(-c3nnn(Cc4cc(F)c(-c5nnc(C(F)F)o5)cc4F)n3)ccc2n1` [compound 423, 6-(2-(4-(5-(difluoromethyl)-1,3,4-oxadiazol-2-yl)-2,5-difluorobenzyl)-2H-tetrazol-5-yl)quinazolin-2-amine], the pIC50 was 3.00 at recombinant human HDAC1 and 7.00 at recombinant human HDAC6.
On to `Cc1nc(F)ccc1-c1cn(Cc2ccc(-c3nnc(C(F)F)o3)cc2)nn1` [compound 241, 2-(difluoromethyl)-5-(4-((4-(6-fluoro-2-methylpyridin-3-yl)-1H-1,2,3-triazol-1-yl)methyl)phenyl)-1,3,4-oxadiazole], for which the pIC50 at recombinant human HDAC1 is less than 3.70; on recombinant human HDAC6, 6.67.
As to `CCS(=O)(=O)N1CCN(Cc2ccc(-c3cn(Cc4c(F)cc(-c5nnc(C(F)F)o5)cc4F)nn3)cc2)CC1` [compound 169, 2-(difluoromethyl)-5-(4-((4-(4-((4-(ethylsulfonyl)piperazin-1-yl)methyl)phenyl)-1H-1,2,3-triazol-1-yl)methyl)-3,5-difluorophenyl)-1,3,4-oxadiazole], the pIC50 at recombinant human HDAC1 was less than 3.70; on recombinant human HDAC6, 7.09.
On to `Cn1c(N)nc2cc(-c3cn(Cc4ncc(-c5nnc(C(F)F)o5)cc4F)nn3)ccc21` [compound 349, 5-[1-[[5-[5-(difluoromethyl)-1,3,4-oxadiazol-2-yl]-3-fluoropyridin-2-yl]methyl]triazol-4-yl]-1-methylbenzimidazol-2-amine], for which the pIC50 on recombinant human HDAC1 is 3.75; on recombinant human HDAC6, 7.32.
For `Nc1cccc(-c2cn(Cc3c(F)cc(-c4nnc(C(F)F)o4)cc3F)nn2)c1` [compound 297, 3-(1-(4-(5-(difluoromethyl)-1,3,4-oxadiazol-2-yl)-2,6-difluorobenzyl)-1H-1,2,3-triazol-4-yl)aniline] the same measures were 4.19 and 7.43.
In the case of `CS(=O)(=O)NCCC(c1ccc(-c2nnc(C(F)F)o2)cn1)n1cc(-c2ccc(N)nc2)nn1` (stereo not drawn) [Compd. 293, N-(3-(4-(6-aminopyridin-3-yl)-1H-1,2,3-triazol-1-yl)-3-(5-(5-(difluoromethyl)-1,3,4-oxadiazol-2-yl)pyridin-2-yl)propyl)methanesulfonamide], the results for the pIC50 on recombinant human HDAC1 and on recombinant human HDAC6 were less than 3.70 and 7.51, respectively.
Take `O=C(Nc1cccc(-c2nc(Cc3ccc(-c4nnc(C(F)F)o4)cc3)no2)c1)N1CCOCC1` [compound 228, N-(3-(3-(4-(5-(difluoromethyl)-1,3,4-oxadiazol-2-yl)benzyl)-1,2,4-oxadiazol-5-yl)phenyl)morpholine-4-carboxamide]: the pIC50 on recombinant human HDAC1 is less than 3.70; at recombinant human HDAC6, 6.75.
For `Nc1ncc(-c2cccc(-c3nnn(Cc4ccc(-c5nnc(C(F)F)o5)cc4)n3)c2)s1` [compound 200, 5-(3-(2-(4-(5-(difluoromethyl)-1,3,4-oxadiazol-2-yl)benzyl)-2H-tetrazol-5-yl)phenyl)thiazol-2-amine] the same measures were less than 3.70 and 6.95.
On to `Nc1ccc(-c2noc(Cc3ccc(-c4nnc(C(F)F)o4)cc3)n2)cc1` [compound 375, 4-[5-[[4-[5-(difluoromethyl)-1,3,4-oxadiazol-2-yl]phenyl]methyl]-1,2,4-oxadiazol-3-yl]aniline], for which the pIC50 on recombinant human HDAC1 was less than 3.00; at recombinant human HDAC6, 7.06.
The corresponding values for `Nc1nc2ccc(-c3cn(Cc4ccc(-c5nnc(C(F)F)o5)cc4Cl)nn3)cc2s1` [compound 340, 6-[1-[[2-chloro-4-[5-(difluoromethyl)-1,3,4-oxadiazol-2-yl]phenyl]methyl]triazol-4-yl]-1,3-benzothiazol-2-amine] are less than 3.00 and 7.39.
The corresponding values for `Fc1cc(-c2nnc(C(F)F)o2)ccc1Cc1nc(-c2ccc(NC3=NCCN3)cc2)no1` [compound 420, N-(4-(5-(4-(5-(difluoromethyl)-1,3,4-oxadiazol-2-yl)-2-fluorobenzyl)-1,2,4-oxadiazol-3-yl)phenyl)-4,5-dihydro-1H-imidazol-2-amine] are less than 3.00 and 7.92.
On to `O=C1Nc2cc(-c3cn(Cc4ccc(-c5nnc(C(F)F)o5)cc4)nn3)ccc2NC12CCNCC2` [compound 277, 6′-(1-(4-(5-(difluoromethyl)-1,3,4-oxadiazol-2-yl)benzyl)-1H-1,2,3-triazol-4-yl)-1′,4′-dihydro-3′H-spiro[piperidine-4,2′-quinoxalin]-3′-one], for which the results for the pIC50 on recombinant human HDAC1 and at recombinant human HDAC6 were 3.78 and 7.14, respectively.
Regarding `[2H]C([2H])(c1ccc(-c2nnc(C(F)F)o2)cc1)n1cc(-c2ccc3nc(N)sc3c2)nn1` [compound 351, 6-[1-[dideuterio-[4-[5-(difluoromethyl)-1,3,4-oxadiazol-2-yl]phenyl]methyl]triazol-4-yl]-1,3-benzothiazol-2-amine], the pIC50 on recombinant human HDAC1 was less than 3.00; at recombinant human HDAC6 it was 7.68.
Consider `CNc1ccc2cc(-c3nnn(Cc4ccc(-c5nnc(C(F)F)o5)cc4F)n3)ccc2n1` [compound 401, 6-[2-[[4-[5-(difluoromethyl)-1,3,4-oxadiazol-2-yl]-2-fluorophenyl]methyl]tetrazol-5-yl]-N-methylquinolin-2-amine], for which the pIC50 on recombinant human HDAC1 was 3.00; on recombinant human HDAC6 it was 6.84.
The corresponding values for `CC1(C)CN(c2cccc(-c3cn(Cc4c(F)cc(-c5nnc(C(F)F)o5)cc4F)nn3)c2)C1=O` [compound 92, 1-(3-(1-(4-(5-(difluoromethyl)-1,3,4-oxadiazol-2-yl)-2,6-difluorobenzyl)-1H-1,2,3-triazol-4-yl)phenyl)-3,3-dimethylazetidin-2-one] are less than 3.70 and 7.46.
The corresponding values for `CC(=O)N(Cc1ccco1)c1cccc(-c2cn(Cc3c(F)cc(-c4nnc(C(F)F)o4)cc3F)nn2)c1` [compound 183, N-(3-(1-(4-(5-(difluoromethyl)-1,3,4-oxadiazol-2-yl)-2,6-difluorobenzyl)-1H-1,2,3-triazol-4-yl)phenyl)-N-(furan-2-ylmethyl)acetamide] are less than 3.70 and 7.03.
Take `Fc1cc(-c2nnc(C(F)F)o2)c(F)cc1Cn1cnc(-c2ccc(NC3=NCCN3)cc2)c1` [compound 361, N-[4-[1-[[4-[5-(difluoromethyl)-1,3,4-oxadiazol-2-yl]-2,5-difluorophenyl]methyl]imidazol-4-yl]phenyl]-4,5-dihydro-1H-imidazol-2-amine]: the figures for the pIC50 at recombinant human HDAC1 and on recombinant human HDAC6 were less than 3.00 and 8.05, respectively.
On to `FC(F)c1nnc(-c2ccc(Cn3nnnc3-c3cccc(-n4cccn4)c3)cc2)o1` [compound 289, 2-(4-((5-(3-(1H-pyrazol-1-yl)phenyl)-1H-tetrazol-1-yl)methyl)phenyl)-5-(difluoromethyl)-1,3,4-oxadiazole], for which the figures for the pIC50 at recombinant human HDAC1 and on recombinant human HDAC6 were less than 3.70 and 6.69, respectively.
For the compound `FC(F)c1nnc(-c2ccc(Cn3nnnc3-c3ncccn3)cc2)o1` [compound 287, 2-(difluoromethyl)-5-(4-((5-(pyrimidin-2-yl)-1H-tetrazol-1-yl)methyl)phenyl)-1,3,4-oxadiazole], the pIC50 on recombinant human HDAC1 was less than 3.70; at recombinant human HDAC6, 6.35.
For the compound `Nc1ccc(-c2nc(Cc3c(F)cc(-c4nnc(C(F)F)o4)cc3F)no2)cn1` [compound 141, 5-(3-(4-(5-(difluoromethyl)-1,3,4-oxadiazol-2-yl)-2,6-difluorobenzyl)-1,2,4-oxadiazol-5-yl)pyridin-2-amine], the pIC50 on recombinant human HDAC1 is less than 3.70; at recombinant human HDAC6, 7.25.
For the compound `FC(F)c1nnc(-c2ccc(Cc3nnc(-c4ccccc4)s3)cc2)o1` [Compd. 238, 2-(difluoromethyl)-5-(4-((5-phenyl-1,3,4-thiadiazol-2-yl)methyl)phenyl)-1,3,4-oxadiazole], the values for the pIC50 at recombinant human HDAC1 and at recombinant human HDAC6 were less than 3.70 and 6.68, respectively.
